We go through one compound from paper PMC11674800, “Second-Generation Antipsychotics Induce Metabolic Disruption in Adipose Tissue-Derived Mesenchymal Stem Cells Through an aPKC-Dependent Pathway” (Cells, 2024).

The test system of data set [1] is ADSCs. Description: Adipogenic differentiation, lipid droplet staining (HCS LipidTox). The format is cell-based, human. To be noted: 5 µM; after three weeks of differentiation. How it is done:
ADSCs were plated at a density of 70,000 cells/well in a 12-well plate using DMEM with 10% FBS. When the cells reached about 90% confluence, the culture medium was removed and substituted with WAT-differentiating medium containing DMEM 10% FBS, insulin (1 μM), dexamethasone (DEXA, 1 μM), IBMX (0.5 mM), and rosiglitazone ([…]). After 3 days of exposure to the differentiating medium, the cells were cultured in a maintenance medium containing only insulin (1 μM) and rosiglitazone (1 μM) for 14 days. The medium was changed every 3 days. The differentiation results were evaluated by staining the cells with HCS LipidTOX™ for neutral lipids (Thermo Fisher Scientific, Waltham, MA, USA) after 21 days. The cells were fixed using 4% paraformaldehyde (PFA, Sigma-Aldrich, SaintLouis, MO, USA) for 15 min at room temperature; then, each well was stained using HCS LipidTox and Hoechst 33342 and incubated at room temperature for 30 min. After this incubation, the cells were washed with water. Images were acquired using fluorescence microscopy (FLoid Cell Imaging Station, Life Technology, Carlsbad, CA, USA) or light microscopy (DMi1, Leica, Wetzlar, Germany) and analyzed using ImageJ software (v 1.52a).

Data set [2] has as its system INSRβ signaling in ADSCs. Kind of data set: Insulin signaling Western blot / INSRβ immunoprecipitation. The data set is classed as cell-based, human. To be noted: 5 μM, 16 h. How it is done:
(§1) After treatments, whole-cell lysates were prepared using RIPA lysis buffer supplemented with protease inhibitors (AEBSF, aprotinin, bestatin, E-64, EDTA, leupeptin, Sigma-Aldrich, Saint Louis, MO, USA) and orthovanadate (Sigma-Aldrich, Saint Louis, MO, USA). The proteins in the lysates were collected and quantified using the Pierce BCA protein assay kit (Thermo Fisher Scientific, Waltham, MA, USA). Subsequently, the proteins were denatured by heating at 95 °C for 5 min in the presence of 2% Sodium Dodecyl Sulfate (SDS, Sigma-Aldrich, Saint Louis, MO, USA), 150 mM dithiothreitol (DTT, Sigma-Aldrich, Saint Louis, MO, USA), and 0.01% bromophenol blue (Sigma-Aldrich, Saint Louis, MO, USA). The samples were then analyzed using SDS-PAGE (SDS-Polyacrylamide Gel Electrophoresis) and Western blotting (WB).
Following treatment, the cells were stimulated with insulin at 50 ng/mL for 15 min. For the immunoprecipitation of the insulin receptor beta subunit (INSRβ), cell lysates were prepared using RIPA lysis buffer with protease inhibitors, as described previously. The lysates were then incubated for 1 h with magnetic beads (Dynabeads Protein G, Thermo Fisher Scientific, Waltham, MA, USA) that had been previously bound to anti-INSRβ antibody, following the manufacturer’s instructions. After incubation, the beads were washed three times with RIPA buffer to remove non-specifically bound proteins. The immunoprecipitated proteins bound to the beads were then eluted by boiling the beads at 95 °C for 5 min in the presence of 2% SDS, 150 mM DTT, and 0.01% bromophenol blue. The eluted proteins were analyzed using SDS-PAGE and, subsequently, using WB.
Background: Immunoblotting shows a protein as a band on a membrane.

Data set [3] has as its system INSRβ. Description: INSRβ endocytosis assay and immunofluorescence localization. As to conditions: 5 μM, 16 h; 15 min insulin stimulation. The format is cell-based, human. As to the method:
ADSCs were seeded at a density of 100,000 cells/well in a 6-well plate. The protocol was carried out as described in Barrow-McGee et al., 2015 [33]. Cell surface proteins were labeled by incubating the cells with 0.2 mg/mL sulpho-NHS-SS-biotin (Sigma-Aldrich, Saint Louis, MO, USA) in PBS for 45 min on ice. Labeled cells were then washed with cold PBS and incubated at 37 °C in a culture medium containing insulin at 50 ng/mL to allow for INSR trafficking. At the indicated times, the medium was removed and the dishes were transferred to ice and washed with cold PBS. Biotin was removed from the proteins that remained at the cell surface via reduction for 15 min with 180 mM of the membrane-impermeant reducing agent MesNa (sodium 2 mercaptoethane sulphonate, Sigma-Aldrich, Saint Louis, MO, USA) in 50 mM Tris and 100 mM NaCl at pH 8.6. MesNa was quenched by adding 180 mM iodoacetamide (IAA, Sigma-Aldrich, Saint Louis, MO, USA) for 10 min. The cells were lysed using RIPA buffer as previously described. The proteins were quantified using BCA; equal protein amounts received streptavidin–agarose beads (Sigma-Aldrich, Saint Louis, MO, USA) and were agitated at 4 °C for 2 h. Then, the beads were collected via centrifugation (7000× g) and washed in lysis buffer, and the proteins were extracted by heating at 95 °C with sample buffer. In each internalization assay, two controls were carried out. To measure INSRβ at the surface, biotinylated cells at 4 °C were lysed without biotin reduction (Ts). To verify the efficiency of the surface biotin removal, the biotin reduction and MesNa-quenching steps were carried out on cells that had remained on ice (T0). Then, lysis was carried out. All lysates were analyzed via Western blot.
The percentages of internalized INSR were calculated using the following formula: internalized receptor = (receptor level after incubation at 37 °C) − (receptor level at time 0)/(total surface receptor) × 100. All samples were normalized on the input INSR signal.
For INSRβ endocytosis experiments, the cells were stimulated with 50 ng/mL insulin for 15 min. For transferrin endocytosis experiments, the cells were incubated with 25 μg/mL Transferrin Texas Red for 5 min. After treatment, the cells were washed with PBS and fixed with 4% PFA for 10 min at room temperature, followed by an additional PBS wash. The cells were then permeabilized by incubating them with cold HEPES-Triton X-100 buffer for 5 min at 4 °C. […] Images were acquired using a confocal microscope (Leica TCS SP8, Wetzlar, Germany) and analyzed using ImageJ (v 1.52a) software in order to quantify and analyze the fluorescence signals.

In data set [4] the test system is LC3B. Kind of data set: Autophagy induction (LC3B Western blot, LAMP1/LC3B colocalization). The format is cell-based, human. To be noted: 16 h treatment. How it is done: as §1
(§2) For INSRβ endocytosis experiments, the cells were stimulated with 50 ng/mL insulin for 15 min. For transferrin endocytosis experiments, the cells were incubated with 25 μg/mL Transferrin Texas Red for 5 min. After treatment, the cells were washed with PBS and fixed with 4% PFA for 10 min at room temperature, followed by an additional PBS wash. The cells were then permeabilized by incubating them with cold HEPES-Triton X-100 buffer for 5 min at 4 °C. After permeabilization, the cells were incubated with primary antibodies for 30 min, followed by incubation with Alexa Fluor 488- or 546-conjugated secondary antibodies (Invitrogen, Waltham, MA, USA) and phalloidin, labeled with either Alexa Fluor 546 or 633 (Invitrogen Waltham, MA, USA) for 30 min. After incubation, coverslips were mounted on glass slides using a mounting medium. Images were acquired using a confocal microscope (Leica TCS SP8, Wetzlar, Germany) and analyzed using ImageJ (v 1.52a) software in order to quantify and analyze the fluorescence signals.

Data set [5] relates to TFEB. Description: TFEB nuclear localization (confocal microscopy). To be noted: 5 μM, 16 h; compared to untreated cells. The data set is classed as cell-based, human. How it is done:
as §2

In data set [6] the test system is cathepsin B. Kind of data set: Cathepsin B Western blot. The data set is classed as cell-based, human. As to conditions: 5 μM, 16 h. As to the method:
as §1

Data set [7] concerns PKCζ. Kind of data set: PKC activation (Western blot, P-PKCζ T560 immunofluorescence). The data set is classed as cell-based, human. To be noted: 5 μM, 16 h. How it is done:
as §1, §2

Data set [8] deals with ADSCs. As to conditions: 7 days; 1 to 50 μM.

SMILES strings stand for the structures.

Consider `Cc1cc2c(s1)Nc1ccccc1N=C2N1CCN(C)CC1` [olanzapine], for which, in data set [1], the “quantity and average size of lipid droplets” value is on record as “notably decreased”; the “reduction in lipid accumulation” value is “approximately 30%”. Also, the “phosphorylated INSRβ serine residues” value in data set [2] (basal and after insulin stimulation) is “increased levels”. For the same compound, in data set [2] (insulin 50 ng/mL), the “INSRβ tyrosine phosphorylation (P-INSRβ Y1146)” value is recorded as “reduction”; the “P-AKT T308, P-AKT S473, and P-ERK T202/Y204” value is reported as “decrease”. For the same compound, in data set [3], the “INSRβ colocalization in LAMP1-positive lysosomes” value was “unaffected”, the INSRβ internalization result is given as “significant reduction”, the “INSRβ localization in CD63-positive recycling endosomes” value is listed as “reduced” and the “localization of INSRβ in RAB7-positive late endosomes” value is “significantly increased localization”. In addition, in data set [4], the “colocalization of LAMP1 with LC3B” value was “not observed” and the “conversion of LC3B-I to LC3B-II” value is given as “not after olanzapine”. Further, the “increase in TFEB nuclear localization” value in data set [5] is listed as 50%. Moreover, the “levels of cathepsin B” value in data set [6] is given as “elevated levels”. Besides, in data set [7] (Western blot), the “canonical PKCs (cPKCs) and atypical PKCζ activation state” value is on record as “activation”. Also, in data set [7] (immunofluorescence), the “increase in nuclear P-PKCζ T560” value worked out at 2 fold. Further, in data set [8], the “effects on cell viability” value is recorded as “negligible effects”.
